Columns and labels:
[1] = biological target: Cdk1‐cyclin A2 (Homo sapiens, UniProt P06493); assay: In vitro kinase activity after 24 h incubation of active Cdk1:cyclin A2 with acrylamides; type: biochemical; settings: for inhibition at 500 µM: 0.5 mM, 24 hours incubation, n=3, read-out: % inhibition ± SEM Cdk1
Procedure: Figure 6 a) Sequence alignment of Cdk family. Cys177 is highlighted in yellow. b) Published selectivity profiles of selected Cdk2 inhibitors.29 c) Active Cdk1/Cdk2:cyclin A2 was incubated with acrylamides 1 and 2 (0.5 mM) for 24 hours and then their in vitro kinase activity was measured (n=3). […]
Tables! 2R6.! Molecular! replacement! was! conducted! on! all! data! sets! using!Phaser[14]/MOLREP[15]!against! apoRCdk2! (PDB:!
4EK3)!and!the! model! was! iteratively! refined! using! Phenix.Refine[16]!with! manual! modelling! and! adjustments! carried! out! in!
COOT[17].! Descriptions! of! the! ligands! and! links! were! generated! with! JLigand[18]!and! refined! with! Refmac[19].! Electron! density! […]
Cdk2! (1! mg)! was! sequentially! incubated! with! aliquots! of! CAK1! (3!×!0.05! mg)! at! r.t.! for! 4! hours! at! a! time! in! 1.5! mL! of! a! 30! mM!
Tris/HCl! buffer! (pH! 7.5)! containing! 10! mM! MgCl2,! 10! mM! ATP! and! 3! mM! DTT.! As! CAK1! appeared! to! become! rapidly! inactiR
vated! in! the! presence! of! pCdk2,! three! repetitions! were! required! to! drive! the! reaction! to! completion.! The! resulting! solution! was!
incubated!with!50!µL!of!glutathioneRSepharose!beads!and!filtered!to!remove!remaining!CAK1.!
Phosphorylation! of! T160! results! in! increased! mobility! of! Cdk2! during! gel! electrophoresis! and! the! reaction! was! monitored! by!
SDSRpage.! The! site! of! modification! was! subsequently! verified! by! western! blot! using! an! antiRT160! antibody! (Cell! Signalling!
2561)!and!complete!monoRmodification!was!confirmed!by!intact!protein!mass!spectrometry.! […]
initiated!by!addition!of!0.5!mM!ATP!and!0.24!mM!substrate!peptide!([…])!and!the!absorbance!at!340!nm!was!moniR […]
plate! reader! […]
was!measured!from!the!gradient!during!the!linear!phase!of!product!accumulation.!! […]
ments,! the! wavelength! was! adjusted! to! 230! nm! and! elipticity! was! measured! at! […]
repeats!of!10!s!integrations!per!temperature.!The!meltRtemperature!(Tm)!was!determined!using!Prism!6.0!by!fitting!a!sigmoidal! […]
The! cell! lysates! were!diluted! to! […] RIPA! lysis! buffer,! as! quantified! by! the! […]

[2] = qIT (quantitative irreversible tethering) thiol consumption assay with glutathione; settings: compound 0.5 mM, glutathione 5 μM, TCEP-agarose 2 % w/v
Procedure: To measure the kinetics of electrophile‐thiol conjugation we developed quantitative irreversible tethering (qIT), a technique which employs fluorogenic thiol quantification (FTQ) in a high‐throughput thiol consumption assay (Figure 1 a). […] We solved this problem using an immobilized reducing agent (TCEP‐agarose, 2 % w/v), allowing facile separation by centrifugation before conducting the FTQ step (Figure 1 b).
The target thiol (5 μM) is reacted with electrophilic fragments (0.5 mM) under pseudo‐first‐order conditions in the presence of TCEP‐agarose (2 % w/v). Reaction progress is followed by discrete measurements of residual target thiol concentration using the fluorogenic probe CPM and rate constants are derived from exponential regression analysis. b) TCEP‐agarose prevents aerobic thiol oxidation. Glutathione solutions were stored ±TCEP‐agarose (2 % w/v).
Electrophiles were individually reacted with glutathione under pseudo‐first‐order conditions in the presence of TCEP‐agarose. […] Fluorescence measurements were normalized against a DMSO control and exponential regressions used to determine rate constants.
ReactionBplate" setup:!Each! well! of! a! 96Rwell! PCR! plate! was! charged! with! 60–100! µL! of! target! thiol! (GSH! or! protein,! 10! µM)!
and! 4%! w/v! TCEPRagarose! beads! in! 100! mM! phosphate! buffer! (pH! 7.5! or! 8)! and! cooled! to! 4! ˚C.! Reactions! were! started! by!
addition! of! an! equal! volume! of! preRcooled! electrophile! solution! (1! mM,! 2%! DMSO)! in! 0.1! M! phosphate! buffer! (final! concentraR
tion:! thiol! =! 5! µM,! electrophile! =! 0.5! mM,! 2%! w/v! TCEPRagarose! beads),! with! a! minimum! of! 4! wells! per! plate! used! as!
DMSO/thiol! only! controls.! After! mixing,! TCEPRagarose! was! pelleted! by! centrifugation! (1,300! rpm,! 1! min)! and! the! plate! incuR
bated!at!4!˚C.,CPM"Quench:! At! a! series! of! time! points!

Cdk1‐cyclin A2, sequence (P06493 whole entry): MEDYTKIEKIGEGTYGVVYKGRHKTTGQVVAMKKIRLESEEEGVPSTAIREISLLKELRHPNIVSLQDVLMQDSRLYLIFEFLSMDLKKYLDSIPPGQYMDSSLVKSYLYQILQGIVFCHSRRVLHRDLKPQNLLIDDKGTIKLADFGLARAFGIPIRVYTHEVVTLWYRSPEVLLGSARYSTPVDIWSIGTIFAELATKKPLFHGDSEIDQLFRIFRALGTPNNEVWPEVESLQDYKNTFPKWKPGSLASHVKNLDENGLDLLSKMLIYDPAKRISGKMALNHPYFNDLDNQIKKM
Cdk1‐cyclin A2, sequence (P20248 whole entry partner): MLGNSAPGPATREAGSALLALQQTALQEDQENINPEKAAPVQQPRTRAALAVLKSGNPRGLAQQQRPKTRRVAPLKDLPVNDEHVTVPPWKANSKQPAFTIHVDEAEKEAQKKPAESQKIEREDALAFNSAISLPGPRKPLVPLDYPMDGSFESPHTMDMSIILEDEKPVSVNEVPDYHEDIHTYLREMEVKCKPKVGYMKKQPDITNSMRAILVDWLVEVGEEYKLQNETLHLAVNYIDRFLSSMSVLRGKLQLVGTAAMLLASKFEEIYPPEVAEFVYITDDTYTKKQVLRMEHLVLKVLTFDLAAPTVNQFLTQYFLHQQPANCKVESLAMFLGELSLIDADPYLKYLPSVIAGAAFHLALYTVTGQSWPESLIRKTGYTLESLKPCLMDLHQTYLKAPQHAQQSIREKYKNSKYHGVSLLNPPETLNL

inhibition at 500 µM [1] [%]	inhibition of Cdk1‐cyclin A2 in vitro (in words) ([1]; prolonged exposure (24 hours))	Compound	k GSH (pseudo-first-order rate constant) [2] [h⁻¹]
2 ± 10	failed to inhibit	C=CC(=O)N1CCN(C(=O)OC(C)(C)C)c2ccccc21 [Acrylamide 1]	0.041
-2 ± 8	–	C=CC(=O)N1CCN(C(=O)OC)c2ccccc21 [Acrylamide 2]	0.089

Source: PMC5947712, “High‐Throughput Kinetic Analysis for Target‐Directed Covalent Ligand Discovery” (Angewandte Chemie (International Ed. in English), 2018)
